Experiment [1] deals with T1, cloned human ORL1/nociceptin receptors (Homo sapiens, UniProt P41146).
T1 construct: expressed in transfected cells
As to the kind of experiment: Functional blockade of agonist-mediated G-protein activation, GTP-γ-[35S] binding. Type of experiment: biochemical. The text has this:
Agonist-mediated stimulation of G-protein coupled receptors results in the activation of membrane associated Gαβγ-protein heterotrimer complexes, and represents the first step in the transduction of extracellular signals to modification of intracellular pathways. The first step in activation of receptor-mediated activation of Gαβγ-proteins heterotrimer is the exchange of Gα subunit bound guanosine diphoshpate (GDP) for guanosine triphosphate (GTP). The binding of GTP to the Gα subunit causes dissociation of the heterotrimer subunits, Gβ and Gγ, resulting in the modulation of several intracellular signaling cascades. Measurement of receptor-mediated G-protein activation can be measured using the non-hydrolyzable radiolabeled analog of GTP, GTP-γ-[35S]. Utilizing this methodology, antagonist affinity (Kb) is measured in membranes expressing cloned human ORL1/nociceptin receptors using a GTP-γ-[35S] binding assay according to previously described protocols with minor modifications (DeLapp et al., J Pharmacol Exp Ther. 1999 May; 289(2):946-55; Ozaki et al., Eur J Pharmacol. 2000 Aug. 18; 402(1-2):45-53). Assays are conducted in a 200-μl volume with the following buffer composition: 100 mM NaCl, 20 mM HEPES, 5 mM MgCl2, 1 mM EDTA, 0.1% BSA, 3 μM GDP, 0.5 nM [^35S]GTPγS. ORL1 receptor membrane suspension is added at a concentration of 20 μg protein per well and receptor stimulation is achieved using 300 nM nociceptin/OFQ. Wheat germ agglutinin coated SPA beads (Amersham, Arlington Hts., Ill.) are added at 1 mg per well to detect membrane-bound [^35S]GTPγS. Plates are sealed and incubated for 2 hr. at room temperature. Plates are then placed at 4° C. overnight to allow the SPA beads to settle and then counted in a Wallac Microbeta. Specific [^35S]GTPγS binding is determined as the difference in CPM observed in the absence and presence of 10 μM unlabeled GTPγS. Data are plotted as the percent of specific [^35S]GTPγS bound. Curves are plotted as the percent of specific binding and IC50 values are determined using a sigmoidal dose response curve with variable slope. Antagonist affinity (Kb) is estimated according to DeLapp et al., 1999 using a modification of the equation of Cheng and Prusoff (1973) where Kb=IC50×(1+D×EC50^−1)^−1.

Experiment [2] has as its system NIH-Swiss mice; 129S6 wild type and nociceptin/ORL1 receptor knockout mice. As to the kind of experiment: Forced-swim test in mice (mFST). Type of experiment: in vivo, mouse. Conditions: mFST. From the text:
Forced-Swim Test in Mice (mFST) mFST is an established in vivo assay for antidepressant activity (Li et al. J Pharmacol Exp Ther. 319(1):254-9, 2006.). […] The mFST was used to evaluate potential antidepressant-like activity of novel nociceptin/ORL1 antagonists according to previously published methods (Li et al. J Pharmacol Exp Ther. 319(1):254-9, 2006.). Briefly, male NIH-Swiss mice (Harlan Sprague-Dawley, Indianapolis, Ind.) weighing between 25-30 g are used. Group housed animals are removed from the vivarium to the testing area in their own cages and allowed to adapt to the new environment for at least 1 hour before testing. Alternatively, male 129S6 wild type and nociceptin/ORL1 receptor knockout mice were used to confirm dependence of the response to compound was nociceptin/ORL1 receptor dependent. All compounds are prepared in 20% Captisol, 25 mM phosphate buffer, pH 2.0 on the day of use. Mice are placed in a cylinder (diameter: 10 cm; height: 25 cm) filled with 6 cm of water (22-25° C.) for 6 min. The duration of immobility during the last 4 min. of the 6 min. period of the test was scored. A mouse is recorded as immobile when floating motionless or making only those movements necessary to keep its head above water.

Experiment [3] has as its system wild type and ORL knockout mice. As to the kind of experiment: Blockade of fasting-induced hyperphagia in mice. It counts as in vivo, mouse. Conditions: wild type mice, oral gavage 30 min. prior to food, food intake 1 hr. From the text:
Blockade of fasting-induced hyperphagia in rats is an accepted model for hyperphagic eating disorders. […] Mice are individually housed a minimum of 3 days prior to the onset of testing to eliminate any effects of stress due to the change from group to individual housing. Three mice/genotype are randomly assigned to each treatment group on the test day. Pre-fast body weight measurements are taken, and food is then removed from cages overnight. Mice are fasted for approximately 15 hr. The next morning, the mice are given one of three doses of drug or vehicle via oral gavage 30 min. prior to gaining access to food. Drugs are dissolved in 20% Captisol dissolved in 25 mM phosphate buffer, pH 2.0. Measurements of body weight are taken immediately prior to drug treatment or 24 hr. after access to food is restored. […] Measurements of food intake are recorded 1 hr following access to food, as indicated, by weight of food remaining at 1 hr. It should be noted that food intake measured is during the light phase, a time during which mice are typically at rest and not normally eating. Following initial testing, mice are rested for 1 week with access to unlimited chow.

This is an account of results in patent US20120214784A1, “SPIROPIPERIDINE COMPOUNDS AS ORL-1 RECEPTOR ANTAGONISTS” (ELI LILLY AND COMPANY, priority 2009, published 2012).

Structures are written as SMILES.

T1 sequence (P41146 whole entry): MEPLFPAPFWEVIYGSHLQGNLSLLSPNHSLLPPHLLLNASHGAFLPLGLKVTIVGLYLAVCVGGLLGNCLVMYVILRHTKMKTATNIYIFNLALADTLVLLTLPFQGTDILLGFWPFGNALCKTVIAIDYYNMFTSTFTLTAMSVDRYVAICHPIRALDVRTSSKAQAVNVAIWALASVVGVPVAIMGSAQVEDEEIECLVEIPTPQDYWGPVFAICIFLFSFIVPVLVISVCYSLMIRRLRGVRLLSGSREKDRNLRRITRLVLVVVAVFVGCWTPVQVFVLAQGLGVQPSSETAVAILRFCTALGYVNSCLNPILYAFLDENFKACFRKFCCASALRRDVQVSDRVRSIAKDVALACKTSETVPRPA

`Cc1nn(-c2c(F)cccc2F)cc1CN1CCC2(CC1)OCC(F)(F)c1cc(Cl)sc12.O=C(O)C(O)C(O)C(=O)O` [Example 2, 2-Chloro-1′-[[1-(2,6-difluorophenyl)-3-methyl-pyrazol-4-yl]methyl]-4,4-difluoro-spiro[5H-thieno[2,3-c]pyran-7,4′-piperidine] (L)-Tartrate] displayed a Kb in experiment [1] of 0.43 nM. In addition, the “maximum effect, reduction in immobilization time” value in experiment [2] is on record as 56%. The compound further had an ED60 in experiment [2] (immobility time) of 23 nM. Further, the fasting-induced hyperphagia entry in experiment [3] is given as “substantially block fasting-induced hyperphagia”.
